“And” between values parts separate entries of the source, which are not always exact repeats. Equal entries are not always repeated. Where two headings read alike, the source gives them in different places.
Key:
[1] = In vivo toxicity of Compound 1 in rats; settings: rat, single bolus intravenous administration, healthy rats
Excerpt: The toxicity was due to the vehicle and was attributed to smaller size of infusion vessels, and concurrent catheter tract infection.

[2] = tested on: human breast tumor (MDA-MB-231) xenografts; test: Human MDA-MB-231 breast cancer mice model; format: in vivo, HRLN female nude mice; settings: Intravenous treatment, 100 mg/kg 5/2/5/2/5
Method: The antitumor activity of Compound 1 was further tested in a human MD-MB-231 breast cancer model in mice, using formulation D11 at 6 and 10 mg/mL concentrations (see Table 8). HRLN female nude mice (8 weeks of age) were treated with 5×10^6 MDA-MB-231 tumor cells (sc) in the right flank. Animals were randomized (ten per group) when tumors reach an average size of 80-120 mg and treatment began according to the table below.
Tumor measurements were taken twice weekly using calipers and were converted to tumor mass (in milligrams) using the formula: with^2 (mm)×length (mm)×0.52. Body weights were also recorded twice weekly. Statistical analysis was done using the unpaired two-tailed Student's t test.

[3] = Pharmacokinetics of Formulation D11 given CIV for 14 days in rats; format: in vivo; settings: both sexes, Sprague-Dawley, rat, plasma; for concentration at 2 h: read-out: mean plasma concentration 2 hours after the end of infusion; for Vd / AUC / clearance: iv, 14-day CIV
Method: Sprague-Dawley rats received an intravenous continuous infusion over 14 days of Compound 1 at 25 mg/kg/day, 50 mg/kg/day, or 75 mg/kg/day at a rate of 2 mL/kg/h for 14 consecutive days (Formulation D11). Blood was collected from the jugular vein in tubes containing K2 EDTA from 3 rats/sex/group at the following time points: 2, 6, and 12 hours after the start of dosing on Day 1, on Day 2 at 6 hours (approximately 30 hours after the start of dosing), on Days 6 and 10 at 6 hours, and on Day 15, 1 hour prior the end of dosing, and then at 5 min, 15 min, 30 min, 1 h, and 2 h after the end of dosing.

[4] = Pharmacokinetic study using Formulation D11 (IV, IP, SC) and Formulation C (PO); format: in vivo, Crl: CD1 mice
Method: Formulation D11, at a final concentration of 6 mg/ml of Compound 1 was used for IV, IP and SC bolus administration. […] Prior to dosing, animals (female Crl: CD1 mice; 6 weeks of age, 22-24 g) were weighed, randomly selected and assigned to the different treatment groups. Compound 1 was administered by the intravenous (IV), subcutaneous (SC), intraperitoneal (IP), or oral (PO) route to the assigned animals. The dosing volume of Compound 1 was 5 mL per kg body weight. Animals were anesthetized prior to bleeding with 5% isoflurane. Blood was collected into microtainer tubes containing the anticoagulant K2EDTA by cardiac puncture from each of 4 animals per bleeding timepoint (2 min, 5 min, 15 min, 30 min, 1 h, 2 h, 4 h and 8 h). Following collection, the samples were centrifuged and the plasma obtained from each sample was recovered and stored frozen (at approximately −80° C.) pending analysis. […] Samples were analysed by LC/MS/MS. Standard curve ranged from 25 to 2000 ng/mL with limit of quantitation (LOQ)≦25 ng/mL and limit of detection (LOD) of 10 ng/mL.
Plasma values of Compound 1 falling below the limit of quantitation (LOQ) were set to zero. Mean concentration values and standard deviation (SD) were calculated at each timepoints of the pharmacokinetic study (n=4 animals/timepoint). The following pharmacokinetic parameters were calculated: area under the plasma concentration versus time curve from time zero to the last measurable concentration time point (AUC0-t), area under the plasma concentration versus time curve extrapolated to infinity (AUCinf), maximum observed plasma concentration (Cmax), time of maximum plasma concentration (tmax), apparent first-order terminal elimination rate constant (kel), apparent first-order terminal elimination half-life will be calculated as 0.693/kel (t1/2). The systemic clearance (CL) of Compound 1 after intravenous administration was calculated using Dose/AUCinf. Pharmacokinetic parameters were calculated using Kinetica™ 4.1.1 (Innaphase Corporation, Philadelphia, Pa.).

[5] = Population pharmacokinetic analysis (NONMEM), rat; format: in vivo; settings: plasma, Rat (IV + CIV); for Vd: read-out: Vss; for half-life: rat, iv
Excerpt: (§1) Plasma concentrations of Compound 1 were obtained from mice, rats, and monkeys following intravenous injection or continuous infusion. Compound 1 pharmacokinetic parameters in mice, rats, and monkeys were estimated using population pharmacokinetic analysis, a function of the software program NONMEM™ (version 5). Typical population pharmacokinetic parameters for Compound 1 in humans were extrapolated from allometric equations that were derived from pharmacokinetic parameters estimated in the three animal species. […] A two-compartment model with a first-order elimination from the central compartment adequately described Compound 1 plasma concentration-time profiles following intravenous bolus injection (30 mg/kg) in mice and rats, 7-day continuous infusion in rats (50 to 170 mg/kg/day), and 14-day continuous infusion in monkeys (5 to 30 mg/kg/day).

[6] = Population pharmacokinetic analysis (NONMEM), monkey; format: in vivo; settings: cynomolgus, plasma, iv, Monkey (CIV); for half-life: monkey; for Vd: read-out: Vss
Excerpt: as §1

[7] = tested on: human prostate tumor (PC3) xenografts; test: Human PC3 prostate cancer mice model; format: in vivo, HRLN male nude mice; settings: Intravenous treatment, 100 mg/kg 5/2/5/2/5
Method: The anticancer activity of Compound 1 was tested in a human PC3 prostate model in mice, using formulation D11; at 6, 9 and 10 mg/mL concentrations (see Table 7). HRLN male nude mice (8 weeks of age) were implanted with 1 mm^3 PC3 tumor fragments subcutaneously (sc) in the right flank. Animals were randomized (ten per group) when tumors reach an average size of 80-120 mg and treatment began according to the table below.
Tumor measurements were taken twice weekly using callipers and were converted to tumor mass (in milligrams) using the formula: with^2 (mm)×length (mm)×0.52. Body weights were also recorded twice weekly. Statistical analysis was done using the unpaired two-tailed Student's t test.

[8] = population PK, read-out: t1/2, α (converted)
[9] = population PK, read-out: t1/2, β (converted)

CC(C)=CCC/C(C)=C/CC/C(C)=C/CN1C(=O)c2cccc(O)c2Nc2c(O)cc(O)cc21 [Compound 1, 10-farnesyl-4,6,8-trihydroxy-dibenzodiazepin-11-one]
MTD [1]: 85 mg/kg
antitumor activity (in words) [2]: did not result in activity
concentration at 2 h ([3]; intravenous, 25 mg/kg/day): 28 ng/mL
concentration at 2 h ([3]; intravenous, 50 mg/kg/day): 53 ng/mL
concentration at 2 h ([3]; intravenous, 75 mg/kg/day): 75 ng/mL
concentration at 10 day ([3]; intravenous, CIV, 50 mg/kg/day): 1750 ng/mL and ~3.8 µM
Vd ([3]; 25 mg/kg/day, 25 mg/kg/day, read-out: Vss): 15.8 L/kg
Vd ([3]; 25 mg/kg/day, 25 mg/kg/day, read-out: Vz): 6.8 L/kg
Vd ([3]; 50 mg/kg/day, 50 mg/kg/day, read-out: Vss): 38.8 L/kg
Vd ([3]; 50 mg/kg/day, 50 mg/kg/day, read-out: Vz): 3.1 L/kg
Vd ([3]; 75 mg/kg/day, 75 mg/kg/day, read-out: Vss): 15.4 L/kg
Vd ([3]; 75 mg/kg/day, 75 mg/kg/day, read-out: Vz): 3.1 L/kg
AUC ([3]; 25 mg/kg/day): 116 µg·h/mL
clearance ([3]; 25 mg/kg/day): 50 mL/min/kg
AUC ([3]; 50 mg/kg/day): 396 µg·h/mL
clearance ([3]; 50 mg/kg/day): 30 mL/min/kg
AUC ([3]; 75 mg/kg/day): 597 µg·h/mL
clearance ([3]; 75 mg/kg/day): 30 mL/min/kg
tissue distribution (in words) ([4]; IV and IP dosing 30 mg/kg, 30 min): well distributed
tissue levels (in words) ([4]; SC dosing 30 mg/kg, 30 min, versus IP): significantly lower
time plasma concentration maintained at therapeutically relevant levels ([4]; intraperitoneal and subcutaneous administrations, 30 mg/kg, Formulation D11): over 8 hours
clearance ([5]; WT 0.225 Kg): 4.08 mL/min
Vd ([5]; WT 0.225 Kg): 0.081 L
clearance ([5]; population PK): 18.2 mL/min/kg
Vd ([5]; population PK): 0.362 L/kg
half-life [5, 8]: 0.075 h
half-life [5, 9]: 2.5 h
half-life [6, 8]: 0.308 h
half-life [6, 9]: 8.05 h
clearance ([6]; WT 3.8 Kg): 28 mL/min
Vd ([6]; WT 3.8 Kg): 2.36 L
clearance ([6]; population PK): 7.35 mL/min/kg
Vd ([6]; population PK): 0.622 L/kg
antitumor activity (in words) [7]: did not result in activity

From patent US20060276436A1, “Farnesyl dibenzodiazepinone formulation” (Ecopia BioSciences, Inc., priority 2005, published 2006)
